Measurements published in patent US10085981B2, “Protein acyl transferase inhibitors and methods of treatment” (UNIVERSITY OF SOUTH FLORIDA, priority 2015, dated 2018).
Read-outs that look alike come from different tables or passages of the source.

Legend:
[1] = tested on: S. cerevisiae RJY1941 (control); assay: Yeast cell spot assay, control strain; format: cell-based
Description: (§1) Following 24 hrs incubation with varying concentrations of the inhibitors in 1% DMF, S. cerevisiae strains RJY1941 and RJY1942 were then diluted 1/100, and spotted onto SC-Ura plates with 2% glucose. Cytotoxicity data was obtained by detecting the colony growth, following 48 hrs incubation at 30° C., with white light detection on the Bio-Rad Molecular Imager® ChemiDoc™ XRS+ (Hercules, Calif.) and performing densitometry with Bio-Rad ImageLab™ Software (Hercules, Calif.). Triplicate reactions were plated in triplicate. Values were normalized to vehicle control (1% DMF) for each plate, and then the averages of each reaction were compared for statistical analysis.
(§2) We next compared the ability of either strain to grow following the 24 hrs incubation with Compounds 13, 14, or 25. Serial dilutions of RJY1941 and RJY1942 were spotted on agar plates following incubation for 24 hrs with varying inhibitor concentrations. […] Conversely, compound 13 inhibited (100%) the growth of RJY1942 (sensitized) at 5 μM.

Erf2 [2] = target: T1, Erf2 (Saccharomyces cerevisiae, UniProt Q06551); assay: Fluorescence-based coupled PAT assay of the rate of Erf2 autopalmitoylation; format: biochemical, S. cerevisiae; conditions: for mode of inhibition of Erf2 autopalmitoylation: inhibitor titrations varying inhibitor and palmitoyl-CoA
T1 construct: made in house; host or cells: Saccharomyces cerevisiae strain RJY1842 (erf4Δ/erf4Δ), galactose-induced pESC(-Leu) vector, Ni-NTA purified
Description: The HTS application of protein palmitoylation was recently described, but was adjusted for this study. The production of NADH was monitored with a Biotek Mx fluorimeter (Biotek, Winooski, Vt.) using 340 nm excitation/465 nm emission. The 50 μl reaction contained 2 mM 2-Oxoglutarate (α-ketoglutamic acid), 0.25 mM NAD+, 0.2 mM Thiamine Pyrophosphate, 0.5 μg of purified 6×HIS-Erf2-(FLAG)-Erf4, 1 mM EDTA, 1 mM dithiothreitol, 8 mU 2-oxogluarate dehydrogenase (α-ketoglutarate dehydrogenase), 50 mM sodium phosphate, pH 6.8, and 0 100 μM inhibitor in 5% DMF. The reaction was initiated by the addition of 40 μM palmitoyl-CoA and monitored for 30 mins at 30° C. The first 10 mins of the reaction was analyzed to determine the initial rates of CoASH release. The PAT specific activity was determined from a standard curve of NADH production with different CoASH amounts. In these reactions, CoASH was added to the standard PAT reaction mixture (without Erf2/Erf4 complex or palmitoyl-CoA) and the reaction was allowed to proceed to equilibrium before fluorescence was measured.
The identification of palmitoylation inhibitors has been hampered by the lack of assays amenable to high throughput screening applications. Previously, we validated an assay that monitors the rate of autopalmitoylation by measuring the production of CoASH generated from the […] of palmitoyl-CoA [13]. This assay has a Z′-value of 0.87 [13]. […] This assay can be used to monitor autopalmitoylation in real time or as an end point assay, thus providing flexibility when screening small molecule compounds. Compounds with internal fluorescence or that affect the assay components are easily identified and excluded, allowing for the rapid identification of the compounds that inhibit or activate PAT autopalmitoylation activity. […]

[3] = tested on: S. cerevisiae RJY1942 (palmitoylation sensitive); assay: Growth inhibition assay, palmitoylation-sensitive strain; format: cell-based; conditions: for selectivity: EC50 in the control strain RJY1941 as compared to the sensitive strain RJY1942: growth curves, 24 hrs
Description: The in vivo effect of the inhibitors on Ras2 palmitoylation was investigated by comparing the growth of S. cerevisiae strains previously described for our complementation assay. Briefly, the cells contain a defective allele of RAS2 that is balanced by an episomal copy of RAS2 linked to URA3. Under these conditions, the yeast strain cannot grow unless the episomal copy of RAS2 is palmitoylated. Varying concentrations of the inhibitors were added to 200 μl volumes of the yeast cells at an OD600 between 0.8 and 1.2 in a 96-well plate format. The OD600 was observed every 30 mins for 24 hrs and EC50 values were determined by graphing rate of growth against concentration of inhibitor for each inhibitor.
To examine the inhibition of Ras palmitoylation in vivo, we utilized two strains of S. cerevisiae. The yeast strain RJY1942 (palmitoylation sensitive) requires Ras2 palmitoylation for viability. The isogenic wild type control yeast strain (RJY1941) is not dependent on Ras2 palmitoylation for viability. The growth of both strains was monitored in the presence (or absence) of our inhibitors every 30 mins for 24 hrs. EC50 values were calculated using GraphPad Prism® (La Jolla, Calif.) to extrapolate the effective concentration of each inhibitor that caused a 50% reduction in growth (FIG. 9). […] Compounds 13, 25, and 2-BP show a modest selectivity for the sensitive strain, RJY1942, over the control strain, RJY1941, resulting in a 2-fold greater EC50 value in the control strain as compared to the sensitive strain (values listed in FIG. 5, right panel). […] Additional work is needed to determine the mechanism of growth inhibition and selectivity of these compounds.

[4] = tested on: S. cerevisiae RJY1942 (sensitized); assay: Yeast cell spot assay, sensitized strain; format: cell-based; conditions: for inhibition at 5 µM: Saccharomyces cerevisiae
Description: as §1, §2

Erf2 [5] = target: T1, Erf2; assay: BODIPY-C12:0 gel-based assay of steady-state Erf2 autopalmitoylation; format: biochemical, S. cerevisiae
Description: BODIPY®-C12:0-CoA (40 μM final, unless specified otherwise) was added to a 50 μl reaction containing approximately 0.5 μg enzyme (6×HIS-Erf2-(FLAG)-Erf4) and 100 μM inhibitors in 5% DMF in 50 mM sodium phosphate buffer, pH 6.8. The reactions were incubated 10 mins with inhibitor, and then the reaction was initiated with the addition of BODIPY®-C12:0-CoA, and incubated 15 mins at 30° C. The reaction was terminated by the addition of 5× non-reducing protein loading buffer. Each reaction was heated at 65° C. for 3 mins and then subjected to SDS-PAGE (12%). The gel was rinsed three times in ddH2O and visualized on the Typhoon 9410 Variable Mode Imager (GE Healthcare, Piscataway, N.J.) for BODIPY® fluorescence (ex. 488 nm/em. 532 nm) to visualize co-migration of the BODIPY® signal with 6×HIS-Erf2-(FLAG)-Erf4. The amount of 6×HIS-Erf2-(FLAG)-Erf4 was determined empirically using SDS-PAGE analysis under reducing conditions against a standard curve of bovine serum albumin.
To determine if the ten compounds identified in this study were inhibiting autopalmitoylation, and not targeting hydrolysis of the enzyme, steady-state autopalmitoylation was evaluated at 100 μM of each compound compared to 100 μM 2-BP and DMF (vehicle) alone. […] From these screens we observed a decrease in BODIPY® fluorescence at the apparent molecular weight of Erf2. […]

Erf2 [6] = target: T1, Erf2; conditions: previously demonstrated [13]; cited from earlier work
[7] = 20 μM, spotted after 24 hrs incubation
[8] = concentrations lower than 20 μM (2.5, 5, 10 μM)
[9] = spotted after 24 hrs incubation, read-out: inhibition of growth of RJY1942 (sensitized)

T1 sequence (Q06551 whole entry): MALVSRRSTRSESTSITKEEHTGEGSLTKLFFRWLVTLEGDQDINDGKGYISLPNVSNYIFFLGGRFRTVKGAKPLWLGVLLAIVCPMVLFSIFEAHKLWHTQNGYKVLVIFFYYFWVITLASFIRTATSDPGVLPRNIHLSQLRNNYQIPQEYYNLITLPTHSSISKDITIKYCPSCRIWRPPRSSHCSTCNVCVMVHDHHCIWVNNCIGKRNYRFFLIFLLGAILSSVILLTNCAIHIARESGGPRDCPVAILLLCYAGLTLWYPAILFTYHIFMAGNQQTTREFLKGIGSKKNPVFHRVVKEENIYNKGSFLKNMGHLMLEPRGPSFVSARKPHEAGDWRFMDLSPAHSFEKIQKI

Row | Compound | inhibition of growth of RJY1941 (control) [1, 7] | inhibition of growth of RJY1941 (control) [1, 8] | VMAX for the Palmitoyl-CoA substrate (Erf2 [2]; inhibitor at 25 μM) [µM] | VMAX for the Palmitoyl-CoA substrate (Erf2 [2]; inhibitor at 50 μM) [µM] | VMAX for the Palmitoyl-CoA substrate (Erf2 [2]; inhibitor at 100 μM) [µM] | mode of inhibition of Erf2 autopalmitoylation (Erf2 [2]) | selectivity: EC50 in the control strain RJY1941 as compared to the sensitive strain RJY1942 [3] [fold] | inhibition at 5 µM ([4]; read-out: inhibition of growth of RJY1942 (sensitized), relative to that observed for compound 13) [%] | Ki (Erf2 [5]; dose response curves of steady-state autopalmitoylation, read-out: steady-state autopalmitoylation inhibition constant (Ki), gel-based assay) [µM] | mode of inhibition of Erf2 autopalmitoylation (Erf2 [6]) | Ki (Erf2 [2]) [µM] | EC50 ([3]; Saccharomyces cerevisiae, read-out: EC50 (50% reduction in growth)) [µM] | inhibition of yeast growth in spot assay ([4]; 2.5-20 μM on solid yeast medium, strain not specified) | mode of inhibition of steady-state Erf2 autopalmitoylation (Erf2 [5]; 25, 50, 100 μM compound at varying BODIPY-C12-CoA) | inhibition at 5 µM [4, 9] [%] | inhibition of growth of RJY1942 (sensitized) ([4]; concentrations higher than 5 μM)
1 | CC(C)Cc1ccc(C(C)CN2CCN(CCCC[C@H]3CNCCN3CCc3cc(C(F)(F)F)cc(C(F)(F)F)c3)C[C@@H]2Cc2ccc(O)cc2)cc1 (stereo partly drawn) [Compound 25, 4-(((2S)-4-(4-((S)-1-(3,5-bis(trifluoromethyl)phenethyl)piperazin-2-yl)butyl)-1-(2-(4-isobutylphenyl)propyl)piperazin-2-yl)methyl)phenol] | completely inhibited | no detectable effect | 307 ± 30 | 344 ± 34 | 542 ± 60 | Competitively | 2 | ~90 | – | – | – | – | – | – | – | –
2 | CCCCCCCCCCCCCCC(Br)C(=O)O (stereo not drawn) [Compound 2-BP, 2-bromopalmitic acid, reference compound] | – | – | 160 ± 5 | 126 ± 23 | 51 ± 8 | – | 2 | – | 79 | uncompetitive or mixed inhibitor | 59 | 12.5 | did not inhibit | – | – | –
3 | CC(C)Cc1ccc(C(C)CN2CCNC[C@@H]2CCCCN2CCN(CC(C)c3ccc(CC(C)C)cc3)[C@@H](Cc3ccc(O)cc3)C2)cc1 (stereo partly drawn) [Compound 13, 4-(((2S)-1-(2-(4-isobutylphenyl)propyl)-4-(4-((2S)-1-(2-(4-isobutylphenyl)propyl)piperazin-2-yl)butyl)piperazin-2-yl)methyl)phenol] | completely inhibited | no detectable effect | 243 ± 20 | 354 ± 26 | 631 ± 94 | Competitively | 2 | – | – | – | – | – | – | acting competitively | 100 | –
4 | CC(C)Cc1ccc(C(C)CN2CCNC[C@@H]2CCCCN2CCN(CCc3cc(C(F)(F)F)cc(C(F)(F)F)c3)[C@@H](Cc3ccc(O)cc3)C2)cc1 (stereo partly drawn) [Compound 14, 4-(((2S)-1-(3,5-bis(trifluoromethyl)phenethyl)-4-(4-((2S)-1-(2-(4-isobutylphenyl)propyl)piperazin-2-yl)butyl)piperazin-2-yl)methyl)phenol] | completely inhibited | no detectable effect | – | – | – | – | – | – | – | – | – | – | – | – | ~10 | total inhibition
